In patent US9556110B2, “Aminoalcohol lipidoids and uses thereof” (Massachusetts Institute of Technology, priority 2008, dated 2017):

Test system: Factor VII
Experiment: In vivo Factor VII knockdown after injection of anti-Factor VII siRNA lipidoid formulations
Design: species or system C57BL/6 mice
Conditions: mice, 0.01 mg/kg siRNA dosing
Protocol: C57BL/6 mice (Charles River Labs) received either saline or siRNA in lipidoid formulations via tail vein injection at a volume of 0.01 ml/g. […] At 48 hours after administration, animals were anesthetized by isofluorane inhalation and blood was collected into serum separator tubes by retroorbital bleed. Serum levels of Factor VII protein were determined in samples using a chromogenic assay (Biophen FVII, Aniara Corporation) according to the manufacturer's protocols. A standard curve was generated using serum collected from saline-treated animals. Exemplary results are depicted in FIG. 7.
To test siRNA delivery efficacy in vivo, a mouse model for liver delivery was used. […] Once produced by hepatocytes, Factor VII is released into the bloodstream, and a baseline level of expression can be determined by simple blood draw and quantification of protein levels by colorimetric assay. By delivering anti-Factor VII siRNA to hepatocytes, knockdown of this model protein can be achieved and a percentage of silencing can be determined by comparison to an untreated control. […]
Following the initial in vivo screening experiments, two compounds were used to conduct a dose response. […] In addition to Factor VII measurement, the change in mouse body weight is recorded and a loss in weight is generally considered formulation induced toxicity (See FIG. 13b and FIG. 14b). […]

| SMILES | reduction of systemic Factor VII (preliminary) | difference of Factor VII reduction between racemic lipidoid and R or S forms |
| --- | --- | --- |
| CCCCCCCCCC[C@H](O)CN(CCN1CCN(CCN(C[C@@H](O)CCCCCCCCCC)C[C@@H](O)CCCCCCCCCC)CC1)CCN(C[C@@H](O)CCCCCCCCCC)C[C@@H](O)CCCCCCCCCC [(S)—C12-200] | approximately 50% |  |
| CCCCCCCCCCC(O)CN(CCN1CCN(CCN(CC(O)CCCCCCCCCC)CC(O)CCCCCCCCCC)CC1)CCN(CC(O)CCCCCCCCCC)CC(O)CCCCCCCCCC (racemic) [C12-200] |  | insignificant |
